Assay results as given in patent US8629178B2, “Sodium tanshinone IIA sulfonate hydrate and preparation method and use thereof” (priority 2009, dated 2014).

Tests used:
[1] = Accelerated stability test (increase of the relative substances by HPLC); assay type: physicochemical; settings: RH75%, 30° C., lucifuge, sealed in ampoules, sampling time 6 month
Description: In addition, the accelerated stability test performed according to the Pharmacopoeia of the People's Republic of China (2005 Edition) confirmed that the sodium tanshinone IIA sulfonate hydrate crystal had better storage stability than anhydrous sodium tanshinone IIA sulfonate, and thus can be stably stored for a more longer period.
Under RH75%, 30° C. and lucifuge condition, the samples of sodium tanshinone IIA sulfonate hydrate crystals and anhydrous sodium tanshinone IIA sulfonate were separately sealed in ampoules for accelerated stability test, chromatographic conditions: column Kromasil C18 (250 mm×4.6 mm, 5 μm), mobile phase: methanol—0.02 mol/L potassium dihydrogen phosphate solution (adjusted with phosphoric acid to pH=4) (60:40), detection wavelength: 271 nm, flow rate: 1 ml/min, to measure increase extent of the relative substances (see results in Tables 1-2).

[2] = Hygroscopicity test; assay type: physicochemical; settings: 25° C.; for Relative to 0 h, weight gain %: relative humidity 75%, sampling time 48 h
Description: The hygroscopicity test performed according to the Pharmacopoeia of the People's Republic of China (2005 Edition) confirmed that the sodium tanshinone IIA sulfonate hydrate of the present invention is much lower than anhydrous sodium tanshinone IIA sulfonate.
Samples of sodium tanshinone IIA sulfonate hydrates and anhydrous sodium tanshinone IIA sulfonate: anhydrous sodium tanshinone IIA sulfonate and the hydrates of the present invention, about 5 g for each, were placed in dry watch glass with constant weight, precisely weighed, subjected to the test at 25° C. and a relative humidity (RH) of 75%, separately sampled at 0 h and 48 h of the test, and the percentages of weight gain due to hygroscopicity was calculated.

[3] = system: calcium paradox cardiac muscle tissue; assay: Protection effects on calcium paradox cardiac muscle (ex vivo heart perfusion, Langendorff); set-up: species or system guinea pigs; settings: hydrates 32 mg/L, Iproveratril 2.1 mg/L; for Calcium uptake, x ± S μmol/min/g, dry weight: cardiac muscle tissue; for Calcium uptake, x ± S μmol/min/g, dry weight / Protein release, x ± S mg/min/g, dry weight: 8 guinea pigs per group; for Protein release, x ± S mg/min/g, dry weight: coronary artery effluent of 20 min after calcium restored; for Calcium uptake decrease rate, % / Protein release decrease rate, %: relative to calcium paradox group
Description: 48 Healthy guinea pigs, body weight 280-360 g, were divided into 6 groups, 8 guinea pigs per group, separately comprising: normal control group, calcium paradox group, iproveratril positive control group, 3 drug-administrated groups, the animals were fasted for one night before test, intraperitoneally injected with heparin 0.5 mg/kg, intraperitoneally injected with pentobarbital sodium 30 mg/kg after 20 min, their chests were opened after anesthesia, and hearts were taken out quickly, immersed in Kreb's-Henseleit (K-H) perfusion solution as cooled with ice, after aortic cannulation, the hearts were placed in ex vivo heart perfusion device with constant temperature and constant pressure. […] The effluent of coronary artery of 20 min when calcium-containing perfusion solution was restored was collected, the protein release amounts mg/min/g drywt and cardiac muscle tissue calcium uptake μmol/g drywt in the collected coronary artery effluents were measured according to the reference document.

[4] = system: arrhythmia induced by calcium chloride in rats; assay: Effects on arrhythmia induced by calcium chloride in rats; assay type: in vivo, SD rats; settings: intravenous injection, 10 animals per group, 2.5% calcium chloride 100 mg/kg, hydrates 10 mg/kg, Quinidine 13.5 mg/kg
Description: 50 SD rats were provided, male and female, body weight 226±31 g, randomly divided into 5 groups, separately administered by intravenous injection with physiological saline, Quinidine, […] The rats were anaesthetized with 3% pentobarbital sodium 40 mg·kg^−1, fixed in supine position on operation table, injected via lingual vein for 6 minutes, quickly intravenously injected (completed injection in 5 s) with 2.5% calcium chloride 100 mg·kg^−1 (0.4 ml/100 g), the number of animal with ventricular fibrillation and the number of died animals were recorded.

[5] = system: ischemic reperfusion brain tissues of rats; assay: Effects on rat ischemic reperfusion (NO, NOS, MDA, SOD in brain tissue); assay type: in vivo, Wistar rats; settings: for Result of the ischemic reperfusion test in words: compared with sodium tanshinone IIA sulfonate 1.5 hydrate
Description: 36 Male Wistar rats, body weight 250-300 g, were randomly divided into 3 groups: sham operation group, ischemic reperfusion group, and group of drug of the invention, 12 rats per group. As for group of drug of the invention: the rats were peritoneally administered with sodium tanshinone IIA sulfonate 1.5 hydrate in physiological saline, does of 40 mg/kg, twice per day, for consecutive 7 days, and subjected to cerebral ischemia operation 60 min after the last administration; the rats of sham operation group and ischemic reperfusion group were administered with the same volume of isometric physiological saline, respectively.
The rats were anesthetized with 10% chloral hydrate (3.5 ml/kg) by peritoneal injection, fixed in supine position, modeled by the improved Zea Longa thread occlusion method in document [Journal of Shanghai Jiaotong University (Medicine), 2007, 27(10):1218-1222]; in the sham operation group, thread was merely inserted 10 mm, and other steps were the same as the model group, animals appeared operation-side Horner syndrome and opposite-side movement disorder were deemed as successfully established models. After successful establishment of models, the animals were administered in the same dose as above twice per day, and the sham operation group and ischemic reperfusion group were administered with the same volume of isometric physiological saline, respectively. The thread was drawn out 2 h after model establishment, the rats were executed 24 h after reperfusion, their brains were taken out quickly and weighed. Physiological saline was used to prepare 10% brain tissue homogenate solution at low temperature, centrifuged at low temperature, 3000 r/min for 10 min, the deposit was discarded, the supernatant was taken up and tested to determine SOD, MDA, NO, NOS contents or activities according to the specifications of the corresponding commercial SOD, MDA, NO, NOS kits, the results are shown in Table 4.

[6] = rat brain tissue homogenate, 40 mg/kg peritoneally twice per day, 2 h ischemia, 24 h reperfusion

Compound	Relative to 0 month, multiple of the relative substances [1]	Relative to 0 h, weight gain % [2] [%]	Hygroscopicity in words ([2]; compared with the sodium tanshinone IIA sulfonate hydrates, RH 75%, 48 h)	Calcium uptake, x ± S μmol/min/g, dry weight [3]	Protein release, x ± S mg/min/g, dry weight [3]	Calcium uptake decrease rate, % [3] [%]	Protein release decrease rate, % [3] [%]	Arrhythmic animal number (n), Heart arrest [4] [n]	Arrhythmic animal number (n), Ventricular fibrillation [4] [n]	Result of the ischemic reperfusion test in words [5]	MDA [5, 6] [nmol/mL]	NO [5, 6] [µmol/L]	NOS [5, 6] [U/ml]	SOD [5, 6] [U/ml]
Cc1c(S(=O)(=O)[O-])oc2c1C(=O)C(=O)c1c-2ccc2c1CCCC2(C)C.[Na+] [Anhydrous Sodium Tanshinone IIA Sulfonate, reference compound]	1.21	11.43	much higher											
COc1ccc(CCN(C)CCCC(C#N)(c2ccc(OC)c(OC)c2)C(C)C)cc1OC (stereo not drawn) [Iproveratril, reference compound]				36.9 ± 2.5 μmol/min/g, dry weight	2.6 ± 0.2 mg/min/g, dry weight	22.5	48							
C=C[C@H]1C[N@@]2CC[C@H]1C[C@@H]2[C@@H](O)c1ccnc2ccc(OC)cc12 [Quinidine, reference compound]								4	6					
Sodium Tanshinone IIA Sulfonate 0.5 Hydrate	0.34	7.96		34.5 ± 2.4 μmol/min/g, dry weight	2.4 ± 0.2 mg/min/g, dry weight	27.5	52	4	5	results similar to those of the sodium tanshinone IIA sulfonate 1.5 hydrate				
Sodium Tanshinone IIA Sulfonate 1.5 Hydrate	0.25	4.12		35.2 ± 2.8 μmol/min/g, dry weight	2.4 ± 0.3 mg/min/g, dry weight	26.1	52	6	5		2.26 ± 0.62	24 ± 6.35	22 ± 5.31	245 ± 21.59
Sodium Tanshinone IIA Sulfonate 2.5 Hydrate	0.31	1.25		35.4 ± 3.1 μmol/min/g, dry weight	2.5 ± 0.2 mg/min/g, dry weight	25.6	50	5	6	results similar to those of the sodium tanshinone IIA sulfonate 1.5 hydrate				
